Patent US10405547B2, “Substituted cyclic amides as herbicides” (FMC Corporation, priority 2015, dated 2019)

Tests used:
Assay type in all cases: in vivo
[1] = system: ryegrass, Italian (Lolium multiflorum); test: Test A postemergence, Italian ryegrass; settings: visual injury, 0 to 100 scale (0 no effect, 100 complete control), approximately 10 days
Method in brief: (§1)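 Injury scores (0 no effect, 100 complete control) were assigned by visually comparing treated with untreated plants after about 10 days of greenhouse growth. Seeds for soil treatment were sown into a loam and sand blend, while plants for foliar treatment grew in pots of that same blend.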

[2] = system: galium (catchweed bedstraw, Galium aparine); test: Test A postemergence, galium; settings: visual injury, 0 to 100 scale (0 no effect, 100 complete control), approximately 10 days
Method in brief: as §1

[3] = system: foxtail, giant (Setaria faberii); test: Test A postemergence, giant foxtail; settings: visual injury, 0 to 100 scale (0 no effect, 100 complete control), approximately 10 days
Method in brief: as §1

[4] = system: wheat (Triticum aestivum); test: Test A postemergence, wheat; settings: visual injury, 0 to 100 scale (0 no effect, 100 complete control), approximately 10 days
Method in brief: as §1

[5] = system: ragweed (common ragweed, Ambrosia elatior); test: Test A postemergence, ragweed; settings: visual injury, 0 to 100 scale (0 no effect, 100 complete control), approximately 10 days
Method in brief: as §1

corn (Zea mays) = test: Test A postemergence, corn; settings: visual injury, 0 to 100 scale (0 no effect, 100 complete control), approximately 10 days
Method in brief: as §1

[6] = system: sedge, umbrella (small-flower umbrella sedge, Cyperus difformis); test: Test B flooded paddy test, umbrella sedge; settings: 250 g ai/ha, applied to paddy water, visual rating after 13 to 15 days, scale 0 (no effect) to 100 (complete control)
Method in brief: (§2)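 In-water treatment: compound dosed into 3 cm flood over soil, water level unchanged throughout. Controls run alongside; visual assessment at day 13–15.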

[7] = system: barnyardgrass (Echinochloa crus-galli); test: Test A postemergence, barnyardgrass; settings: visual injury, 0 to 100 scale (0 no effect, 100 complete control), approximately 10 days
Method in brief: as §1

[8] = system: pigweed (Amaranthus retroflexus); test: Test A preemergence, pigweed; settings: 0 to 100 scale (0 no effect, 100 complete control)
Method in brief: as §1

kochia (Kochia scoparia) [9] = test: Test A preemergence, kochia; settings: 0 to 100 scale (0 no effect, 100 complete control)
Method in brief: as §1

[10] = system: pigweed (Amaranthus retroflexus); test: Test A postemergence, pigweed; settings: visual injury, 0 to 100 scale (0 no effect, 100 complete control), approximately 10 days
Method in brief: as §1

kochia (Kochia scoparia) [11] = test: Test A postemergence, kochia; settings: visual injury, 0 to 100 scale (0 no effect, 100 complete control), approximately 10 days
Method in brief: as §1

[12] = system: barnyardgrass (Echinochloa crus-galli); test: Test A preemergence, barnyardgrass; settings: 0 to 100 scale (0 no effect, 100 complete control)
Method in brief: as §1

[13] = system: blackgrass (Alopecurus myosuroides); test: Test A postemergence, blackgrass; settings: visual injury, 0 to 100 scale (0 no effect, 100 complete control), approximately 10 days
Method in brief: as §1

[14] = system: foxtail, giant (Setaria faberii); test: Test A preemergence, giant foxtail; settings: 0 to 100 scale (0 no effect, 100 complete control)
Method in brief: as §1

rice (Oryza sativa) = test: Test B flooded paddy test, rice; settings: 250 g ai/ha, applied to paddy water, visual rating after 13 to 15 days, scale 0 (no effect) to 100 (complete control)
Method in brief: as §2

[15] = system: ryegrass, Italian (Lolium multiflorum); test: Test A preemergence, Italian ryegrass; settings: 0 to 100 scale (0 no effect, 100 complete control)
Method in brief: as §1

[16] = system: barnyardgrass (Echinochloa crus-galli); test: Test B flooded paddy test, barnyardgrass; settings: 250 g ai/ha, applied to paddy water, visual rating after 13 to 15 days, scale 0 (no effect) to 100 (complete control)
Method in brief: as §2

[17] = system: ducksalad (Heteranthera limosa); test: Test B flooded paddy test, ducksalad; settings: 250 g ai/ha, applied to paddy water, visual rating after 13 to 15 days, scale 0 (no effect) to 100 (complete control)
Method in brief: as §2

[18] = system: ragweed (common ragweed, Ambrosia elatior); test: Test A preemergence, ragweed; settings: 0 to 100 scale (0 no effect, 100 complete control)
Method in brief: as §1

Structure (SMILES) | Plant response rating, Ryegrass, Italian ([1]; 125 g ai/ha) | Plant response rating, Ryegrass, Italian ([1]; 500 g ai/ha) | Plant response rating, Galium ([2]; 125 g ai/ha) | Plant response rating, Galium ([2]; 500 g ai/ha) | Plant response rating, Foxtail, Giant ([3]; 125 g ai/ha) | Plant response rating, Foxtail, Giant ([3]; 500 g ai/ha) | Plant response rating, Wheat ([4]; 125 g ai/ha) | Plant response rating, Wheat ([4]; 500 g ai/ha) | Plant response rating, Ragweed ([5]; 125 g ai/ha) | Plant response rating, Ragweed ([5]; 500 g ai/ha) | Plant response rating, Corn (corn (Zea mays); 125 g ai/ha) | Plant response rating, Corn (corn (Zea mays); 500 g ai/ha) | Plant response rating, Sedge, Umbrella (Flood) [6] | Plant response rating, Barnyardgrass ([7]; 125 g ai/ha) | Plant response rating, Barnyardgrass ([7]; 500 g ai/ha) | Plant response rating, Pigweed ([8]; 125 g ai/ha) | Plant response rating, Pigweed ([8]; 500 g ai/ha) | Plant response rating, Kochia (kochia (Kochia scoparia) [9]; 125 g ai/ha) | Plant response rating, Kochia (kochia (Kochia scoparia) [9]; 500 g ai/ha) | Plant response rating, Pigweed ([10]; 125 g ai/ha) | further results
O=C1NCC(c2cccc(OCC3CC3)c2)C1C(=O)Nc1ccccc1F (stereo not drawn) [Compound 11] | 0 | 20 | 0 | 30 | 50 | 90 | 0 | 20 | 30 | 40 | 0 | 20 | 0 | 50 | 90 | 0 | 30 | 0 | 40 | 0 | Plant response rating, Pigweed ([10]; 500 g ai/ha): 20; Plant response rating, Kochia (kochia (Kochia scoparia) [11]; 125 g ai/ha): 0; Plant response rating, Kochia (kochia (Kochia scoparia) [11]; 500 g ai/ha): 0; Plant response rating, Barnyardgrass ([12]; 125 g ai/ha): 60; Plant response rating, Barnyardgrass ([12]; 500 g ai/ha): 90; Plant response rating, Blackgrass ([13]; 125 g ai/ha): 0; Plant response rating, Blackgrass ([13]; 500 g ai/ha): 40; Plant response rating, Foxtail, Giant ([14]; 125 g ai/ha): 80; Plant response rating, Foxtail, Giant ([14]; 500 g ai/ha): 90; Plant response rating, Rice (Flood) (rice (Oryza sativa)): 0; Plant response rating, Ryegrass, Italian ([15]; 125 g ai/ha): 0; Plant response rating, Ryegrass, Italian ([15]; 500 g ai/ha): 20; Plant response rating, Barnyardgrass (Flood) [16]: 0; Plant response rating, Ducksalad (Flood) [17]: 0; Plant response rating, Ragweed ([18]; 125 g ai/ha): 0; Plant response rating, Ragweed ([18]; 500 g ai/ha): 0
CON=Cc1cccc(C2CN(C)C(=O)C2C(=O)Nc2ccccc2F)c1 (stereo not drawn) [Compound 53, N-(2-fluorophenyl)-4-[3-[(methoxyimino)methyl]phenyl]-1-methyl-2-oxo-3-pyrrolidinecarboxamide] | 0 | 0 | 0 | 30 | 80 | 90 | 0 | 0 | 0 | 0 | 0 | 0 | 0 | 70 | 90 | 0 | 0 | 60 | 70 | 0 | Plant response rating, Pigweed ([10]; 500 g ai/ha): 0; Plant response rating, Kochia (kochia (Kochia scoparia) [11]; 125 g ai/ha): 0; Plant response rating, Kochia (kochia (Kochia scoparia) [11]; 500 g ai/ha): 0; Plant response rating, Barnyardgrass ([12]; 125 g ai/ha): 90; Plant response rating, Barnyardgrass ([12]; 500 g ai/ha): 90; Plant response rating, Blackgrass ([13]; 125 g ai/ha): 0; Plant response rating, Blackgrass ([13]; 500 g ai/ha): 20; Plant response rating, Foxtail, Giant ([14]; 125 g ai/ha): 90; Plant response rating, Foxtail, Giant ([14]; 500 g ai/ha): 90; Plant response rating, Rice (Flood) (rice (Oryza sativa)): 0; Plant response rating, Ryegrass, Italian ([15]; 125 g ai/ha): 0; Plant response rating, Ryegrass, Italian ([15]; 500 g ai/ha): 0; Plant response rating, Barnyardgrass (Flood) [16]: 30; Plant response rating, Ducksalad (Flood) [17]: 70; Plant response rating, Ragweed ([18]; 125 g ai/ha): 0; Plant response rating, Ragweed ([18]; 500 g ai/ha): 0
